# Patent publication US3970648A, “2-[2-(5-Nitro-2-furyl)vinyl]-4-(anilino)quinazolines” (Diamond Shamrock Corporation, priority 1974, dated 1976)
# How the values were obtained:
# Type in all cases: cell-based
# Streptococcus group E = assay: Bactericide test, Streptococcus group E (agar streak plate)
# Description: (§1) Test formulations were examined for bactericidal and/or bacteriostatic activity against the test organisms shown in Tables A and B. These organisms were chosen as being representative of commercially important pathogens affecting animal agriculture. The antibiotic chlortetracycline was chosen as a positive control, since it has a broad spectrum of activity against a large number of organisms, and its activity can be used for comparative purposes.
# (§2) Basic test formulations of the product of Examples I, II, III, and of chlortetracycline were prepared by dissolving 16 mg (0.016 g) in 2.0 ml of stock emulsifier solution (0.25% Triton X-155 in acetone by volume) and making each solution up to 50 ml with deionized water. The concentration of the test compound in the basic formulation was 320 ppm. Lower concentrations of the test compound were obtained by diluting the basic formulation with a 4% solution of the stock emulsifier in deionized water so that each dilution in the series differed only in test compound content.
# (§3) Nutrient-tryptic soy agar (NTA) consisting of 2.0% Difco Bactoagar 0.8% nutrient broth (Difco), and 0.5% tryptic soy broth (Difco) was prepared and sterilized by autoclaving. A 2 ml aliquot of each test formulation was added to 8 ml of molten NTA. This mixture was then plated in a sterile polystyrene petri dish (100 × 15 mm). After the agar was set, suspensions of each of the test organisms were simultaneously streaked onto the surface of the agar. The inoculated plates were incubated for 48 hr at 28°C. The inhibition of growth of each organism was rated by visual comparison with the organism developing on non-treated agar. Growth inhibition reported as per cent control was rated in three categories as follows: 0% control, growth equivalent to that on non-treated agar; 50% control, sparse development and separated colonies; 100% control, no visible growth or development of colonies.
# [1] = system: Bordetella bronchiseptica; assay: Bactericide test, Bordetella bronchiseptica (agar streak plate)
# Description: as §1, §2, §3
# Staphylococcus aureus = assay: Bactericide test, Staphylococcus aureus (agar streak plate); conditions: Staphylococcus aureus
# Description: as §1, §2, §3
# (§4) Test formulations of the product of Example IV were examined for bactericidal and/or bacteriostatic activity against the test organisms shown in Table B using the Bactericide Test described in Example V. The inhibition of organism growth with each diluted test formulation was rated visually by comparison with the organism developing on a non-treated control agar plate. Growth inhibition reported as per cent control was rated in three categories as follows: 0% control, growth equivalent to that on non-treated agar; 50% control is sparse development and separated colonies; and 100% control, development of individual colonies was not apparent.
# [2] = system: Erysipelothrix rhusiopathiae; assay: Bactericide test, Erysipelothrix rhusiopathiae (agar streak plate)
# Description: as §1, §2, §3
# Streptococcus agalactiae = assay: Bactericide test, Streptococcus agalactiae (agar streak plate)
# Description: as §1, §2, §3
# Escherichia coli = assay: Bactericide test, Escherichia coli (agar streak plate)
# Description: as §1, §2, §3, §4
# [3] = 100% inhibition at lower concentrations
structure (smiles),measurement,setting,value
"O=[N+]([O-])c1ccc(C=Cc2nc(Nc3cccc(O)c3)c3ccccc3n2)o1 [Example II, 2-[2-(5-nitro-2-furyl)vinyl]-4-(m-hydroxyanilino)quinazoline]",inhibition at 8 ppm,Streptococcus group E; 8 ppm,100%
same,inhibition at 16 ppm,"Streptococcus group E; 16 ppm, read-out: % Inhibition",100%
same,inhibition at 32 ppm,Streptococcus group E; 32 ppm,100%
same,inhibition at 64 ppm,"Streptococcus group E; 64 ppm, read-out: % Inhibition",100%
same,effectiveness compared with chlortetracycline (in words),Streptococcus group E; [3],considerably more effective
same,effectiveness compared with chlortetracycline (in words),[1]; [3],considerably more effective
same,inhibition at 0.125 ppm,"[1]; Bordetella bronchiseptica, 0.125 ppm",0%
same,inhibition at 0.25 ppm,"[1]; Bordetella bronchiseptica, 0.25 ppm",0%
same,inhibition at 0.5 ppm,"[1]; Bordetella bronchiseptica, 0.5 ppm",0%
same,inhibition at 1 ppm,"[1]; Bordetella bronchiseptica, 1 ppm, read-out: % Inhibition",0%
same,inhibition at 2 ppm,"[1]; Bordetella bronchiseptica, 2 ppm",0%
same,inhibition at 4 ppm,"[1]; Bordetella bronchiseptica, 4 ppm, read-out: % Inhibition",0%
same,inhibition at 8 ppm,"[1]; Bordetella bronchiseptica, 8 ppm",0%
same,inhibition at 16 ppm,"[1]; Bordetella bronchiseptica, 16 ppm, read-out: % Inhibition",100%
same,inhibition at 32 ppm,"[1]; Bordetella bronchiseptica, 32 ppm",100%
same,inhibition at 64 ppm,"[1]; Bordetella bronchiseptica, 64 ppm, read-out: % Inhibition",100%
same,inhibition at 0.125 ppm,Staphylococcus aureus; 0.125 ppm,0%
same,inhibition at 0.25 ppm,Staphylococcus aureus; 0.25 ppm,0%
same,inhibition at 0.5 ppm,Staphylococcus aureus; 0.5 ppm,0%
same,inhibition at 1 ppm,"Staphylococcus aureus; 1 ppm, read-out: % Inhibition",0%
same,inhibition at 2 ppm,Staphylococcus aureus; 2 ppm,0%
same,inhibition at 4 ppm,"Staphylococcus aureus; 4 ppm, read-out: % Inhibition",0%
same,inhibition at 8 ppm,Staphylococcus aureus; 8 ppm,0%
same,inhibition at 16 ppm,"Staphylococcus aureus; 16 ppm, read-out: % Inhibition",0%
same,inhibition at 32 ppm,Staphylococcus aureus; 32 ppm,0%
same,inhibition at 64 ppm,"Staphylococcus aureus; 64 ppm, read-out: % Inhibition",0%
same,effectiveness compared with chlortetracycline (in words),[2]; [3],considerably more effective
same,inhibition at 0.125 ppm,"[2]; Erysipelothrix rhusiopathiae, 0.125 ppm",100%
same,inhibition at 0.25 ppm,"[2]; Erysipelothrix rhusiopathiae, 0.25 ppm",100%
same,inhibition at 0.5 ppm,"[2]; Erysipelothrix rhusiopathiae, 0.5 ppm",100%
same,inhibition at 1 ppm,"[2]; Erysipelothrix rhusiopathiae, 1 ppm",100%
same,inhibition at 2 ppm,"[2]; Erysipelothrix rhusiopathiae, 2 ppm",100%
same,inhibition at 4 ppm,"[2]; Erysipelothrix rhusiopathiae, 4 ppm",100%
same,inhibition at 8 ppm,"[2]; Erysipelothrix rhusiopathiae, 8 ppm",100%
same,inhibition at 16 ppm,"[2]; Erysipelothrix rhusiopathiae, 16 ppm",100%
same,inhibition at 32 ppm,"[2]; Erysipelothrix rhusiopathiae, 32 ppm",100%
same,inhibition at 64 ppm,"[2]; Erysipelothrix rhusiopathiae, 64 ppm",100%
same,effectiveness compared with chlortetracycline (in words),Streptococcus agalactiae; [3],considerably more effective
same,inhibition at 0.125 ppm,"Streptococcus agalactiae; Streptococcus agalactiae, 0.125 ppm",100%
same,inhibition at 0.25 ppm,"Streptococcus agalactiae; Streptococcus agalactiae, 0.25 ppm",100%
same,inhibition at 0.5 ppm,"Streptococcus agalactiae; Streptococcus agalactiae, 0.5 ppm",100%
same,inhibition at 1 ppm,"Streptococcus agalactiae; Streptococcus agalactiae, 1 ppm, read-out: % Inhibition",100%
same,inhibition at 2 ppm,"Streptococcus agalactiae; Streptococcus agalactiae, 2 ppm",100%
same,inhibition at 4 ppm,"Streptococcus agalactiae; Streptococcus agalactiae, 4 ppm, read-out: % Inhibition",100%
same,inhibition at 8 ppm,"Streptococcus agalactiae; Streptococcus agalactiae, 8 ppm",100%
same,inhibition at 16 ppm,"Streptococcus agalactiae; Streptococcus agalactiae, 16 ppm, read-out: % Inhibition",100%
same,inhibition at 32 ppm,"Streptococcus agalactiae; Streptococcus agalactiae, 32 ppm",100%
same,inhibition at 64 ppm,"Streptococcus agalactiae; Streptococcus agalactiae, 64 ppm, read-out: % Inhibition",100%
same,inhibition at 0.125 ppm,Escherichia coli; 0.125 ppm,0%
same,inhibition at 0.25 ppm,Escherichia coli; 0.25 ppm,0%
same,inhibition at 0.5 ppm,Escherichia coli; 0.5 ppm,0%
same,inhibition at 1 ppm,"Escherichia coli; 1 ppm, read-out: % Inhibition",0%
same,inhibition at 2 ppm,Escherichia coli; 2 ppm,0%
same,inhibition at 4 ppm,"Escherichia coli; 4 ppm, read-out: % Inhibition",0%
same,inhibition at 8 ppm,Escherichia coli; 8 ppm,0%
same,inhibition at 16 ppm,"Escherichia coli; 16 ppm, read-out: % Inhibition",0%
same,inhibition at 32 ppm,Escherichia coli; 32 ppm,0%
same,inhibition at 64 ppm,"Escherichia coli; 64 ppm, read-out: % Inhibition",0%
